{
  "source": "ChEMBL document CHEMBL1131995",
  "about": "“Synthesis and pharmacological profile of 1-aryl-3-substituted pyrrolo[3,2-c]quinolines” (Bioorg Med Chem Lett, 1999)",
  "key": {"Rattus norvegicus": {"system": "Rattus norvegicus", "assay": "Compound was tested in vivo for gastric antisecretory activity after 5 hr of pylorus ligation of SD rat", "format": "functional", "details": "Stomach"}, "[1]": {"target": "Potassium-transporting ATPase (Oryctolagus cuniculus)", "assay": "Compound was tested in vitro for H+/K+ ATPase activity in rabbit stomach preparations"}},
  "data": [
    {"smiles": "CCc1cn(-c2ccc(O)cc2C)c2c1cnc1c(OC)cccc12", "values": [
      {"measurement": "ED50", "setting": "Rattus norvegicus", "result": 59, "unit": "mg/kg"},
      {"measurement": "IC50", "setting": "[1]", "result": 4.8, "unit": "µM"}
    ]},
    {"smiles": "COc1cccc2c1ncc1c(CO)cn(-c3ccccc3C)c12", "values": [
      {"measurement": "IC50", "setting": "[1]", "result": 100, "unit": "µM"}
    ]},
    {"smiles": "COc1cccc2c1ncc1c(C)cn(-c3ccc(OC(C)=O)cc3C)c12", "values": [
      {"measurement": "ED50", "setting": "Rattus norvegicus", "result": 47, "unit": "mg/kg"},
      {"measurement": "IC50", "setting": "[1]", "result": 3.4, "unit": "µM"}
    ]},
    {"smiles": "COc1cccc2c1ncc1c(CCO)cn(-c3ccc(F)cc3C)c12", "values": [
      {"measurement": "IC50", "setting": "[1]", "result": "> 100", "unit": "µM"}
    ]},
    {"smiles": "COc1cccc2c1ncc1c(C(C)C)cn(-c3ccccc3C)c12", "values": [
      {"measurement": "ED50", "setting": "Rattus norvegicus", "result": 90, "unit": "mg/kg"},
      {"measurement": "IC50", "setting": "[1]", "result": 17, "unit": "µM"}
    ]},
    {"smiles": "CCc1cn(-c2ccc(F)cc2C)c2c1cnc1c(OC)cccc12", "values": [
      {"measurement": "ED50", "setting": "Rattus norvegicus", "result": 13, "unit": "mg/kg"},
      {"measurement": "IC50", "setting": "[1]", "result": 5.7, "unit": "µM"}
    ]},
    {"smiles": "Cc1ccccc1-n1cc(C)c2cnc3c(O)cccc3c21", "values": [
      {"measurement": "ED50", "setting": "Rattus norvegicus", "result": 58, "unit": "mg/kg"},
      {"measurement": "IC50", "setting": "[1]", "result": 4.8, "unit": "µM"}
    ]},
    {"smiles": "CCCC(=O)c1cnc2c(OC)cccc2c1Nc1ccccc1C", "values": [
      {"measurement": "ED50", "setting": "Rattus norvegicus", "result": 20, "unit": "mg/kg"},
      {"measurement": "IC50", "setting": "[1]", "result": 18, "unit": "µM"}
    ]},
    {"smiles": "Cc1ccccc1-n1cc(C)c2cnc3c(OC(F)(F)F)cccc3c21", "values": [
      {"measurement": "IC50", "setting": "[1]", "result": "> 100", "unit": "µM"}
    ]},
    {"smiles": "COc1cccc2c1ncc1c(C)cn(-c3ccc(F)cc3C)c12", "values": [
      {"measurement": "ED50", "setting": "Rattus norvegicus", "result": 10, "unit": "mg/kg"},
      {"measurement": "IC50", "setting": "[1]", "result": 14, "unit": "µM"}
    ]},
    {"smiles": "COc1cccc2c1ncc1c(C)cn(-c3ccccc3C)c12", "values": [
      {"measurement": "ED50", "setting": "Rattus norvegicus", "result": 13, "unit": "mg/kg"},
      {"measurement": "IC50", "setting": "[1]", "result": 8.2, "unit": "µM"}
    ]},
    {"smiles": "COc1cccc2c1nc(C)c1c(C)cn(-c3ccccc3C)c12", "values": [
      {"measurement": "IC50", "setting": "[1]", "result": "> 100", "unit": "µM"}
    ]},
    {"smiles": "COc1cccc2c1ncc1c(CCO)cn(-c3ccccc3C)c12", "values": [
      {"measurement": "IC50", "setting": "[1]", "result": 80, "unit": "µM"}
    ]},
    {"smiles": "COc1cccc2c1nc(C)c1c(C)cn(-c3ccc(F)cc3C)c12", "values": [
      {"measurement": "IC50", "setting": "[1]", "result": 72, "unit": "µM"}
    ]},
    {"smiles": "COc1cccc2c1ncc1c(C(C)C)cn(-c3ccc(O)cc3C)c12", "values": [
      {"measurement": "ED50", "setting": "Rattus norvegicus", "result": 49, "unit": "mg/kg"},
      {"measurement": "IC50", "setting": "[1]", "result": 7.2, "unit": "µM"}
    ]},
    {"smiles": "COc1cccc2c1ncc1c(CO)cn(-c3ccc(F)cc3C)c12", "values": [
      {"measurement": "IC50", "setting": "[1]", "result": "> 100", "unit": "µM"}
    ]},
    {"smiles": "COc1ccc2[nH]c([S+]([O-])Cc3ncc(C)c(OC)c3C)nc2c1", "note": "(stereo unspecified) [OMEPRAZOLE]", "values": [
      {"measurement": "ED50", "setting": "Rattus norvegicus", "result": 3.2, "unit": "mg/kg"}
    ]}
  ]
}
